From US11795169B2, “MAP4K4 inhibitors” (IMPERIAL COLLEGE INNOVATIONS LIMITED, priority 2017, dated 2023)
In brackets after ≈: the same amount, converted by molar mass. Read-outs that look alike come from different tables or passages of the source.

Legend:
[1] = biological target: human MAP4K4 kinase domain (Homo sapiens (Human), UniProt O95819); assay: MAP4K4 kinase activity, CisBio HTRF Transcreener ADP assay; format: biochemical
Summary of the method: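 Kinase activity followed by HTRF Transcreener ADP detection: enzyme-generated ADP competes with d2-labelled ADP for Eu3+-cryptate anti-ADP antibody, read ratiometrically at 665/620 nm. IC50 values reported as categories.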

[2] = Resistance to degradation in hepatocyte microsomes (Heps); format: in vitro ADME
[3] = system: CorV.4U cardiomyocytes (hiPSC-CMs); assay: Protection of CorV.4U cardiomyocytes from H2O2 or menadione (luminescent cell viability assay, human cardiac troponin assay); format: cell-based; settings: for EC50: Homo sapiens, Cardiomyocyte
Description: To substantiate the hypothesis that pharmacological inhibition of MAP4K4 would confer resistance to cell death in human cardiomyocytes, cytoprotection was next assessed using hiPSC-CMs.

[4] = system: mice undergoing experimental myocardial infarction; assay: Experimental myocardial infarction in mice (infarct size, TUNEL staining); format: in vivo; settings: for In vivo efficacy (infarct size/area at risk), reduction: mice, experimental myocardial infarction; for reduction in infarct size as a proportion of the area at ischemic risk: 50 mg kg−1 twice by gavage
Procedure: To test if target validation and compound development in hiPSC-CMs might predict success in a whole-animal context, mice undergoing experimental myocardial infarction were treated with Ex-58 or the vehicle control (FIG. 9). […] Treatment was begun either 20 min prior to ischemia (FIG. 9D), or 1 h after reperfusion injury (FIG. 9E, F), the latter having greater relevance to potential clinical benefits.

Formulated solubility = format: physicochemical
Cyp = Cyp Inhibition; format: in vitro ADME
[5] = Plasma protein binding (PPB); format: in vitro ADME; settings: for fraction unbound: plasma
Cyp 2C9 = Cyp 2C9 (Homo sapiens (Human), UniProt P11712); assay: Cyp Inhibition: 2C9; format: in vitro ADME
H9c2 cardiomyocytes = assay: Protection of H9c2 cardiomyocytes; format: cell-based; settings: for EC50: Rattus norvegicus, H9c2
hiPSC-CMs = assay: Calcium cycling in hiPSC-CMs (Fura-2) under menadione; format: cell-based, human
Procedure: Calcium cycling, a hallmark of the cardiac phenotype, likewise is susceptible to redox- and phosphorylation-dependent abnormalities. To determine whether MAP4K4 inhibition might preserve calcium homeostasis, hiPSC-CMs were assessed using the intracellular calcium indicator, Fura-2 (FIG. 8B). […] At 50 μM menadione, spontaneous calcium oscillations persisted in only 8 of 24 cultures (33.3%), versus 21 of 24 receiving 10 μM Ex-58 (87.5%; P<0.001).

VEGFR = assay: Kinase selectivity panel: VEGFR; format: biochemical
Procedure: (§1) In the detection step, endogenous ADP and d2-labeled ADP compete for binding an anti-ADP monoclonal antibody labelled with Eu^3+ cryptate. […] Assays were run in Greiner low volume plates with a final reaction volume of 10 μl.
(§2) The fold selectivity is indicated in parenthesis.

MLK1/MAP3K9 = MLK1/MAP3K9 (Homo sapiens (Human), UniProt P80192); assay: Kinase selectivity panel: MLK1/MAP3K9; format: biochemical
Description: (§3) Compounds of the present invention were screened for their inhibitory activity against MAP4K4, versus selected off-target hits found with early members of this chemical series. MAP4K4 kinase activity was monitored using the CisBio HTRF Transcreener ADP assay, acompetitive immunoassay with a reproducible Z′>0.6. In the detection step, endogenous ADP and d2-labeled ADP compete for binding an anti-ADP monoclonal antibody labelled with Eu^3+ cryptate. A ratiometric fluorescent read-out is used at 665 and 620 nm. […] Assays were run in Greiner low volume plates with a final reaction volume of 10 μl. The MAP4K4 inhibition data are provided in Table 33 below for selected compounds of the present invention. The data has been categorised based on the IC50 value of the compound as “A”, “B” or “C”.
(§4) The data in Table 34 also provides the fold selectivity of the two compounds in favour of MAP4K4 over the tested kinase. The fold selectivity is indicated in parenthesis.

ABL1 = ABL1 (Homo sapiens (Human), UniProt P00519); assay: Kinase selectivity panel: ABL1; format: biochemical
Description: as §3, §4

MINK1/MAP4K6 = MINK1/MAP4K6 (Homo sapiens (Human), UniProt Q8N4C8); assay: Kinase selectivity panel: MINK1/MAP4K6; format: biochemical
Description: as §3, §4

GLK/MAP4K3 = GLK/MAP4K3 (Homo sapiens (Human), UniProt Q8IVH8); assay: Kinase selectivity panel: GLK/MAP4K3; format: biochemical
Description: as §3, §4

Aurora B = Aurora B (Homo sapiens (Human), UniProt Q96GD4); assay: Kinase selectivity panel: Aurora B; format: biochemical
Description: as §3, §4

NUAK = assay: Kinase selectivity panel: NUAK; format: biochemical
Procedure: as §1, §2

FLT3 = FLT3 (Homo sapiens (Human), UniProt P36888); assay: Kinase selectivity panel: FLT3; format: biochemical
Description: as §3, §4

KHS/MAP4K5 = KHS/MAP4K5 (Homo sapiens (Human), UniProt Q9Y4K4); assay: Kinase selectivity panel: KHS/MAP4K5; format: biochemical
Description: as §3, §4

GSK3β = GSK3β (Homo sapiens (Human), UniProt P49841); assay: Kinase selectivity panel: GSK3β; format: biochemical
Description: as §3, §4

TNIK/MAP4K7 = TNIK/MAP4K7 (Homo sapiens (Human), UniProt Q9UKE5); assay: Kinase selectivity panel: TNIK/MAP4K7; format: biochemical
Description: as §3, §4

MLK3/MAP3K11 = MLK3/MAP3K11 (Homo sapiens (Human), UniProt Q16584); assay: Kinase selectivity panel: MLK3/MAP3K11; format: biochemical
Description: as §3, §4

[6] = mouse, in vivo, po, 50 mg/kg
CorV.4U hiPSC-CMs = assay: Mitochondrial function in CorV.4U hiPSC-CMs after acute oxidative stress (menadione); format: cell-based, human; settings: 10 μM compound, 15 μM menadione for 2 h
Procedure: Key aspects of mitochondrial function were monitored in CorV.4U hiPSC-CMs after acute oxidative stress (15 μM menadione for 2 h), with or without Ex-58 (FIG. 8A).

GCK/MAP4K2 = GCK/MAP4K2 (Homo sapiens (Human), UniProt Q12851); assay: Kinase selectivity panel: GCK/MAP4K2; format: biochemical
Description: as §3, §4

[7] = Pharmacokinetics in mice (IV and oral)
[8] = H2O2 as death trigger, read-out: Protection in human iPSC-derived ventricular cardiomyocytes, EC50 H202
[9] = human, read-out: Human PPB % (converted)
[10] = mouse, read-out: Mouse PPB % (converted)

Sequence of human MAP4K4 kinase domain (O95819 25-289): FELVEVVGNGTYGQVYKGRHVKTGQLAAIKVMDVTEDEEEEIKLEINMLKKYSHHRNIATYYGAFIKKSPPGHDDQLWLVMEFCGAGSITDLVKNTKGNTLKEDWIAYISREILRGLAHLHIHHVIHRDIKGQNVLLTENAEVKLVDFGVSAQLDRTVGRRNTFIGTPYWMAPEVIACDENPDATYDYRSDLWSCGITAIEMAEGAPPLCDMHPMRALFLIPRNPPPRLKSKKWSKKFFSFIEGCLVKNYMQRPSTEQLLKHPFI
Sequence of FLT3 (P36888 27-993, species assumed): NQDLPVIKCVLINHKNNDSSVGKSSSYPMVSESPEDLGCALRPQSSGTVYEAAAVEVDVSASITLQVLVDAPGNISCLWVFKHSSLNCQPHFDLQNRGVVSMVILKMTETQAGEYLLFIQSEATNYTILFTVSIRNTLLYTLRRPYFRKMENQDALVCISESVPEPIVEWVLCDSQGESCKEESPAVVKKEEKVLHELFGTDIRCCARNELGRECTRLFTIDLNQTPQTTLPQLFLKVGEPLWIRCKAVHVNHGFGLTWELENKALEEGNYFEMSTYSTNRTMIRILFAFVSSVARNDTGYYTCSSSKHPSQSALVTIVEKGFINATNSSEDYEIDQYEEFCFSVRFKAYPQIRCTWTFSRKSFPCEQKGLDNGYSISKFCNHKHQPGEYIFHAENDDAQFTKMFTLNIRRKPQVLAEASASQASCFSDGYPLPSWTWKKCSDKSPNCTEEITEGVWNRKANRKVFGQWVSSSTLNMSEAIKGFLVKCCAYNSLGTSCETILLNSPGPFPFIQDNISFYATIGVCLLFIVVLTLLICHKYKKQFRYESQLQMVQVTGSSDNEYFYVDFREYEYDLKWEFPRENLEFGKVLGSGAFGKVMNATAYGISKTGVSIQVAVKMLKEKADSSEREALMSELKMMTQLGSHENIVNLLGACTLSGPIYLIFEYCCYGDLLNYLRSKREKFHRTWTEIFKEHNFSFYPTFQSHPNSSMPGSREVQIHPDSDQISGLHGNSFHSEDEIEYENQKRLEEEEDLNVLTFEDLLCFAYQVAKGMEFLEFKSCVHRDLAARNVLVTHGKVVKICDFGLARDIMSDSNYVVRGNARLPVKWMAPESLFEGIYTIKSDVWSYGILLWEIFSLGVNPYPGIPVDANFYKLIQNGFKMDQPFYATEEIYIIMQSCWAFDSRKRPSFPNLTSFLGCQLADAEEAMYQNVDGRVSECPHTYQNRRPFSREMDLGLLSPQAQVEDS
Sequence of GCK/MAP4K2 (Q12851 whole entry): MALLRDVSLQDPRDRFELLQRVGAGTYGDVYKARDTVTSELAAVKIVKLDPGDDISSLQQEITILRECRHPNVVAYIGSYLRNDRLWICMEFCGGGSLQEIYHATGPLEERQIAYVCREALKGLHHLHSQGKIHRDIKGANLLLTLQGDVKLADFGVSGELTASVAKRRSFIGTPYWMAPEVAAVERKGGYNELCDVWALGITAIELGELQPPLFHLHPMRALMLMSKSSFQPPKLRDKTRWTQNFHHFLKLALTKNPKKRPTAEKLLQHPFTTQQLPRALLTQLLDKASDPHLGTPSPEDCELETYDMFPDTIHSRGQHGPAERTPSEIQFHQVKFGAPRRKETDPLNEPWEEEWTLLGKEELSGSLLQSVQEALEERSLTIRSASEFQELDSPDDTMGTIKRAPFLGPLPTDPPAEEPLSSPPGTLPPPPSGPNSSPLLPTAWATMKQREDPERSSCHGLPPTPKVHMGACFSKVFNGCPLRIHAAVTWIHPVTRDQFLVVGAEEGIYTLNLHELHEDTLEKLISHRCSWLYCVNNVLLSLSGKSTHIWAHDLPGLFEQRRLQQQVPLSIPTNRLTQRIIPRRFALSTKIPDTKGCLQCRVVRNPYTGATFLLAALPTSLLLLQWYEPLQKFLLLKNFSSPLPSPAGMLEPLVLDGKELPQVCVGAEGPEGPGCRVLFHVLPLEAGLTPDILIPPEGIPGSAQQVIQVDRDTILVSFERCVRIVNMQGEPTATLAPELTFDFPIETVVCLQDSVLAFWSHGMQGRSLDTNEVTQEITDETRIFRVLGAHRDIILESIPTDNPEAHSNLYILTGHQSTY
Sequence of MLK1/MAP3K9 (P80192 whole entry): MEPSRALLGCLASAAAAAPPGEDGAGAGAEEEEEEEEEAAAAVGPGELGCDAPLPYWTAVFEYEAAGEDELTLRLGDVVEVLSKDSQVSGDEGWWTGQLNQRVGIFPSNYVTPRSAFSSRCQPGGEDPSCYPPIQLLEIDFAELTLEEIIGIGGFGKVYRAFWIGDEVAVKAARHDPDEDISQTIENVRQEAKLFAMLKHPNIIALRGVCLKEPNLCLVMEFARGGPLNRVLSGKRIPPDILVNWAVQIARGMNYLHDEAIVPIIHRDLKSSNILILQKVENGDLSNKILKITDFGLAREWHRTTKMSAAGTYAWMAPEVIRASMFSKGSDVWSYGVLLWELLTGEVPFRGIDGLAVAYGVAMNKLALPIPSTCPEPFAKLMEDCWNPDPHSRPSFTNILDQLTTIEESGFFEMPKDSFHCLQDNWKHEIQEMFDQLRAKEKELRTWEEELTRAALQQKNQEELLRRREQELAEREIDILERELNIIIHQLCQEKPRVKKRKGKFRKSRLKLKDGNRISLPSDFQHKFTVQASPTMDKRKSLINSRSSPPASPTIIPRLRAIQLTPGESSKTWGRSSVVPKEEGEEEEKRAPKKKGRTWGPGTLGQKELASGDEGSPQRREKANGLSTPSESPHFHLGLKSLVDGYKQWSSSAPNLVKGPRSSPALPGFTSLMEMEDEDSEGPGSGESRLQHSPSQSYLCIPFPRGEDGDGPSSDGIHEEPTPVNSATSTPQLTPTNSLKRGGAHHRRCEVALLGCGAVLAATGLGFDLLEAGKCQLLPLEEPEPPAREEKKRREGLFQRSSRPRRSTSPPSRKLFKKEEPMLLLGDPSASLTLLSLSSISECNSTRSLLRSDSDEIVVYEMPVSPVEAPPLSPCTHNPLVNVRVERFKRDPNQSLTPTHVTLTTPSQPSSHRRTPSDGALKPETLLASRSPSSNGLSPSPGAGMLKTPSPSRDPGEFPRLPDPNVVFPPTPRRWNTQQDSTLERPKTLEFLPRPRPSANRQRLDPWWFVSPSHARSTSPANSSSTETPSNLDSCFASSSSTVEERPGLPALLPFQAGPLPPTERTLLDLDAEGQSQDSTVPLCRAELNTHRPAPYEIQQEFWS
Sequence of GSK3β (P49841 whole entry, species assumed): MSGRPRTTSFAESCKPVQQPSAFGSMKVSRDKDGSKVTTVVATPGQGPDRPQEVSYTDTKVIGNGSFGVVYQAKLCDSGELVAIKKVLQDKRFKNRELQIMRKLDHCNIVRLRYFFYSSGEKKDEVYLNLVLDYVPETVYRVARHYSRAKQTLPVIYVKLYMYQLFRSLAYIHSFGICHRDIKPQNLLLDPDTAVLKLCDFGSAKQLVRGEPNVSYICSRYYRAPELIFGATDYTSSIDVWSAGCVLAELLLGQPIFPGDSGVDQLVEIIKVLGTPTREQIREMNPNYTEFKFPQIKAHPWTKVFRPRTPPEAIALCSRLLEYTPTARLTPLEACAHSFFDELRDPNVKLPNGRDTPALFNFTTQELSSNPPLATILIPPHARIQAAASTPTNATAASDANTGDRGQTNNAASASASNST
Sequence of Aurora B (Q96GD4 whole entry): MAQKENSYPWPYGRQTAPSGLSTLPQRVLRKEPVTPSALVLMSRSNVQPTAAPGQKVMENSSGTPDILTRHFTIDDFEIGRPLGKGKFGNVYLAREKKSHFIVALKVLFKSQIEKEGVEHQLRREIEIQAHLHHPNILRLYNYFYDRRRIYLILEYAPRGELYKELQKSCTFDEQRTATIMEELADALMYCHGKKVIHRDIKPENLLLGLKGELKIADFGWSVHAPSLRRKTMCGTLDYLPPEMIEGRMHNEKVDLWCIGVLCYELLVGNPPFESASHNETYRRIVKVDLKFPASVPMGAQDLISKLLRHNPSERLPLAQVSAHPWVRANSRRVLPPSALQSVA
Sequence of MLK3/MAP3K11 (Q16584 whole entry): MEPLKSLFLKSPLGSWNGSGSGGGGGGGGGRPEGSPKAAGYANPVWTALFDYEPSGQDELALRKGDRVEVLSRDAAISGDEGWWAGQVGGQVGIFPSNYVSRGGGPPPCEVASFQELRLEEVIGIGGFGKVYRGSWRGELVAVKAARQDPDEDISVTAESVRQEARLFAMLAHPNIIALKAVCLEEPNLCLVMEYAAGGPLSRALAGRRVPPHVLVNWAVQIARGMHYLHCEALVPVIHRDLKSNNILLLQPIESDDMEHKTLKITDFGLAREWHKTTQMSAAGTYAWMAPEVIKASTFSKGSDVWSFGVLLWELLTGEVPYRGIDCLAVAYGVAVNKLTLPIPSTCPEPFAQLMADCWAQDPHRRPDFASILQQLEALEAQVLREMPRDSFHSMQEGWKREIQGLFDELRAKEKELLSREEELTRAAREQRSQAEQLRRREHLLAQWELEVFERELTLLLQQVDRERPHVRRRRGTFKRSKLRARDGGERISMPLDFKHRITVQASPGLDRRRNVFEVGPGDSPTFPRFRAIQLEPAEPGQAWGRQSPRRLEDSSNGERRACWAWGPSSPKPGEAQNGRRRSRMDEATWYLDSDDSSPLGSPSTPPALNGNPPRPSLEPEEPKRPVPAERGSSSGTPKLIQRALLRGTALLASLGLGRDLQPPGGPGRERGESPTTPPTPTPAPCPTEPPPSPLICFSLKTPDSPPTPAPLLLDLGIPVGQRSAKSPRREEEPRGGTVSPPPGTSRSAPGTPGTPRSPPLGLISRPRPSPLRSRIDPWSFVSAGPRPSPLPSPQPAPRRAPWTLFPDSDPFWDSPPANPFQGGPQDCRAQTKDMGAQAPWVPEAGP

## O=c1[nH]cnc2c1c(-c1ccc(OCC3(CO)COC3)cc1)cn2-c1ccccc1 [Ex-54]
[1]; read-out: MAP4K4, IC50
  IC50: 4 nM
[2]
  resistance to degradation in hepatocyte microsomes (Heps) relative to Ex-58: superior
  Human Heps: 5
  Mouse Heps: 25
  Pig Heps: 6
  Rat Heps: 3
[3]; H2O2 as death trigger
  Protection in human iPSC-derived ventricular cardiomyocytes, H202, efficacy relative to Ex-58: (0.9)
[3]; [8]
  EC50: 469 nM
[3]; read-out: EC50, protection of human cardiomyocytes
  EC50: < 1000 nM
[4]
  In vivo efficacy (infarct size/area at risk), reduction: 53% reduction
[4]; mouse, in vivo
  infarct size in mice (in words): Reduction of infarct size
Formulated solubility
  solubility: 300 µg/mL (≈ 744 µM)
Cyp
  Cyp Inhibition: >10 µM
[5]
  plasma protein binding (PPB) relative to Ex-58: superior
[5]; [9]
  fraction unbound: 0.03
[5]; [10]
  fraction unbound: 0.03
Cyp 2C9
  Cyp Inhibition 2C9: (2C9 8 μM)
H9c2 cardiomyocytes
  Protection in H9c2 cardiomyocytes, efficacy relative to Ex-58: (0.3)
  EC50: 199 nM

## COCCOc1ccc(-c2cn(-c3ccccc3)c3nc[nH]c(=O)c23)cc1 [Ex-58, 5-[4-(2-Methoxy-ethoxy)-phenyl]-7-phenyl-3,7-dihydro-pyrrolo[2,3-d]pyrimidin-4-one]
hiPSC-CMs; 10 μM compound, 50 μM menadione, 21 of 24 cultures
  cultures with persisting spontaneous calcium oscillations: 87.5%
hiPSC-CMs; hiPSC-CMs, mitochondrial function and calcium cycling
  adverse effect on functional parameters: no adverse effect
VEGFR
  fold selectivity for MAP4K4 over VEGFR: (675) fold
  pIC50 VEGFR: 5.72
[1]
  greater potency than F1386-0303: 10 fold
  pIC50 MAP4K4: 8.55
[1]; ATP at Km (10 μM), 0.5 nM kinase domain, 2 h, read-out: MAP4K4
  IC50: ≤ 100 nM
[1]; compared to F1386-303, 13 other protein kinases
  selectivity for MAP4K4 (in words): highly selective
[1]; read-out: MAP4K4, IC50
  IC50: 3 nM
[2]
  Human Heps: ≤10
  Mouse Heps: 85
  Pig Heps: 8
  Rat Heps: 10
[3]; CorV.4U cells, H2O2 and menadione, both viability assays
  protection of human cardiomyocytes (in words): Protection of human cardiomyocytes was substantiated
[3]; H2O2 as death trigger
  Protection in human iPSC-derived ventricular cardiomyocytes, H202, efficacy relative to Ex-58: (1)
[3]; [8]
  EC50: 403 nM
MLK1/MAP3K9
  fold selectivity for MAP4K4 over MLK1/MAP3K9: (23) fold
  pIC50 MLK1/MAP3K9: 7.19
ABL1
  fold selectivity for MAP4K4 over ABL1: (560) fold
  pIC50 ABL1: 5.80
MINK1/MAP4K6
  pIC50 MINK1/MAP4K6: 8.18
[4]; begun 20 min prior to ischemia
  reduction in infarct size as a proportion of the area at ischemic risk: more than 50%
[4]; begun 1 h after reperfusion injury
  reduction in infarct size as a proportion of the area at ischemic risk: > 60%
[4]
  In vivo efficacy (infarct size/area at risk), reduction: 65% reduction
[4]; post-injury study
  suppression of cardiomyocyte apoptosis (TUNEL) in the jeopardized adjacent myocardium: 52%
  suppression of cardiomyocyte apoptosis (TUNEL) within the infarct: 39%
GLK/MAP4K3
  fold selectivity for MAP4K4 over GLK/MAP4K3: (3981) fold
  pIC50 GLK/MAP4K3: 4.95
Aurora B
  fold selectivity for MAP4K4 over Aurora B: (560) fold
  pIC50 Aurora B: 5.49
NUAK
  fold selectivity for MAP4K4 over NUAK: (47) fold
  pIC50 NUAK: 6.88
FLT3
  fold selectivity for MAP4K4 over FLT3: (1148) fold
  pIC50 FLT3: 5.31
KHS/MAP4K5
  fold selectivity for MAP4K4 over KHS/MAP4K5: (153) fold
  pIC50 KHS/MAP4K5: 6.36
GSK3β
  fold selectivity for MAP4K4 over GSK3β: (7762) fold
  pIC50 GSK3β: 4.66
Cyp
  Cyp Inhibition: >10 µM
[5]; [9]
  fraction unbound: 0.01
[5]; [10]
  fraction unbound: 0.02
H9c2 cardiomyocytes
  Protection in H9c2 cardiomyocytes, efficacy relative to Ex-58: (1)
  EC50: 350 nM
TNIK/MAP4K7
  pIC50 TNIK/MAP4K7: 7.96
MLK3/MAP3K11
  fold selectivity for MAP4K4 over MLK3/MAP3K11: (36) fold
  pIC50 MLK3/MAP3K11: 6.99
[6]
  AUCinf: 63733
CorV.4U hiPSC-CMs
  extracellular acidification rate (glycolytic function): largely rescued
GCK/MAP4K2
  fold selectivity for MAP4K4 over GCK/MAP4K2: (112) fold
  pIC50 GCK/MAP4K2: 6.50
[7]; 50 mg kg-1 oral dose, versus F1386-0303
  improvement of free plasma concentration over the earlier compound: > 80 fold
[7]; mouse, plasma, po, 50 mg kg-1
  concentration at 1 h: 334 nM
  concentration at 10 h: 8 nM
